Tests used:
Assay type in all cases: in vivo
[1] = system: lambsquarters (Chenopodium album, CHEAL); experiment: Post-emerge test, greenhouse herbicide activity screening; settings: post-emerge, 14 days after application, rating scale 0-100
Summary of the method: (§1)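 Fourteen days after spraying, crop and weed injury was graded visually from 0, no effect, to 100, every plant dead. Test substances were dissolved in acetone and applied at 15–1000 g ai/ha with a flat-fan nozzle. Application was either pre-emergence, one day after sowing, or post-emergence at the 2–3 leaf stage.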

[2] = system: velvetleaf (Abutilon theophrasti, ABUTH); experiment: as above; settings: post-emerge, 14 days after application, rating scale 0-100
Summary of the method: as §1

[3] = system: large crabgrass (Digitaria sanguinalis, DIGSA); experiment: as above; settings: post-emerge, 14 days after application, rating scale 0-100
Summary of the method: as §1

[4] = system: ivyleaf morningglory (Ipomoea hederacea, IPOHE); experiment: as above; settings: post-emerge, 14 days after application, rating scale 0-100
Summary of the method: as §1

[5] = system: redroot pigweed (Amaranthus retroflexus, AMARE); experiment: as above; settings: post-emerge, 14 days after application
Summary of the method: as §1

[6] = system: johnsongrass (Sorghum halepense, SORHA); experiment: as above; settings: post-emerge, 14 days after application, rating scale 0-100
Summary of the method: as §1

[7] = system: sicklepod (Cassia obtusifolia, CASOB); experiment: as above; settings: post-emerge, 14 days after application, rating scale 0-100
Summary of the method: as §1

[8] = system: green foxtail (Setaria viridis, SETVI); experiment: as above; settings: post-emerge, 14 days after application, rating scale 0-100
Summary of the method: as §1

[9] = system: barnyardgrass (Echinochloa crus-galli, ECHCG); experiment: as above; settings: post-emerge, 14 days after application, rating scale 0-100
Summary of the method: as §1

[10] = system: lambsquarters (Chenopodium album, CHEAL); experiment: Pre-emerge test, greenhouse herbicide activity screening; settings: phytotoxicity rating 0-100, 14 days after application
Summary of the method: (§2)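 Compounds in acetone were track-sprayed at 15–1000 g ai/ha: pre-emergence onto soil sown the previous day, then top-watered to incorporate and later bottom-watered; post-emergence onto 2–3 leaf plants with 0.25% v/v surfactant, bottom-watered only. Ratings on a 0–100 phytotoxicity scale were taken at day 14.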

[11] = system: velvetleaf (Abutilon theophrasti, ABUTH); experiment: as above; settings: phytotoxicity rating 0-100, 14 days after application
Summary of the method: as §2

[12] = system: large crabgrass (Digitaria sanguinalis, DIGSA); experiment: as above; settings: phytotoxicity rating 0-100, 14 days after application
Summary of the method: as §2

[13] = system: ivyleaf morningglory (Ipomoea hederacea, IPOHE); experiment: as above; settings: phytotoxicity rating 0-100, 14 days after application
Summary of the method: as §2

[14] = system: johnsongrass (Sorghum halepense, SORHA); experiment: as above; settings: phytotoxicity rating 0-100, 14 days after application
Summary of the method: as §2

[15] = system: sicklepod (Cassia obtusifolia, CASOB); experiment: as above; settings: phytotoxicity rating 0-100, 14 days after application
Summary of the method: as §2

[16] = system: green foxtail (Setaria viridis, SETVI); experiment: as above; settings: phytotoxicity rating 0-100, 14 days after application
Summary of the method: as §2

[17] = system: barnyardgrass (Echinochloa crus-galli, ECHCG); experiment: as above; settings: phytotoxicity rating 0-100, 14 days after application
Summary of the method: as §2

[18] = system: redroot pigweed (Amaranthus retroflexus, AMARE); experiment: as above; settings: phytotoxicity rating 0-100, 14 days after application
Summary of the method: (§3)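 Compounds in acetone were track-sprayed at 15-1000 g ai/ha (187 l/ha) on sandy loam pots: pre-emerge one day after seeding, post-emerge at 2-3 leaf stage with 0.25% v/v non-ionic surfactant. Phytotoxicity was rated 14 days later on a 0 (no damage) to 100 (complete death) scale.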

[19] = system: field corn (Zea mays L., var. Dekalb 535, CORN); experiment: Post-emerge test, crop safety; settings: post-emerge, 14 days after application, rating scale 0-100
Summary of the method: (§4)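 Rating: 0–100 visual injury, 14 DAA. Application: acetone, 187 l/ha, 15–1000 g ai/ha, flat-fan track sprayer with nozzle 40–45 cm above soil or canopy. Post-emerge runs used 0.25% v/v surfactant on 2–3 leaf plants.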

[20] = system: upland rice (Oryza sp., var. Tebonnet, RICE); experiment: Post-emerge test, crop safety; settings: post-emerge, 14 days after application, rating scale 0-100
Summary of the method: as §4

[21] = system: field corn (Zea mays L., var. Dekalb 535, CORN); experiment: Pre-emerge test, crop safety; settings: crop damage rating 0-100, 14 days after application
Summary of the method: as §3

[22] = system: upland rice (Oryza sp., var. Tebonnet, RICE); experiment: Pre-emerge test, crop safety; settings: crop damage rating 0-100, 14 days after application
Summary of the method: as §3

COc1c(Cl)cc(F)c(-n2c(=O)cc(C(F)(F)F)n(C)c2=O)c1NC(=O)OCc1ccccc1C(F)(F)F [4-33]
30: phytotoxicity rating DIGSA ([3]; 250 g ai/ha) | phytotoxicity rating SORHA ([6]; 250 g ai/ha) | phytotoxicity rating CASOB ([7]; 63 g ai/ha) | phytotoxicity rating SETVI ([8]; 63 g ai/ha) | Pre-emerge Herbicidal Activity SORHA ([14]; 63 g ai/ha) | phytotoxicity rating RICE (crop damage) ([20]; 63 g ai/ha)
45: Pre-emerge Herbicidal Activity DIGSA ([12]; 63 g ai/ha)
90: phytotoxicity rating CHEAL ([1]; 63 g ai/ha) | Pre-emerge Herbicidal Activity DIGSA ([12]; 250 g ai/ha)
100: phytotoxicity rating CHEAL ([1]; 250 g ai/ha) | phytotoxicity rating ABUTH ([2]; 63 g ai/ha) | phytotoxicity rating ABUTH ([2]; 250 g ai/ha) | phytotoxicity rating IPOHE ([4]; 63 g ai/ha) | phytotoxicity rating IPOHE ([4]; 250 g ai/ha) | phytotoxicity rating AMARE ([5]; 63 g ai/ha, rating scale 0-100 (0 no damage, 100 complete death)) | phytotoxicity rating AMARE ([5]; 250 g ai/ha, rating scale 0-100) | Pre-emerge Herbicidal Activity CHEAL ([10]; 63 g ai/ha) | Pre-emerge Herbicidal Activity CHEAL ([10]; 250 g ai/ha) | Pre-emerge Herbicidal Activity ABUTH ([11]; 250 g ai/ha) | Pre-emerge Herbicidal Activity SETVI ([16]; 63 g ai/ha) | Pre-emerge Herbicidal Activity SETVI ([16]; 250 g ai/ha) | Pre-emerge Herbicidal Activity AMARE ([18]; 63 g ai/ha) | Pre-emerge Herbicidal Activity AMARE ([18]; 250 g ai/ha)
0: phytotoxicity rating SORHA ([6]; 63 g ai/ha) | Pre-emerge Herbicidal Activity IPOHE ([13]; 63 g ai/ha) | Pre-emerge Herbicidal Activity CASOB ([15]; 63 g ai/ha)
80: Pre-emerge Herbicidal Activity SORHA ([14]; 250 g ai/ha) | Pre-emerge Herbicidal Activity ECHCG ([17]; 250 g ai/ha)
70: phytotoxicity rating CASOB ([7]; 250 g ai/ha) | Pre-emerge Herbicidal Activity IPOHE ([13]; 250 g ai/ha)
20: phytotoxicity rating ECHCG ([9]; 250 g ai/ha) | Pre-emerge Herbicidal Activity ECHCG ([17]; 63 g ai/ha) | Pre-emerge Herbicidal Activity RICE ([22]; 63 g ai/ha)
15: phytotoxicity rating CORN (crop damage) ([19]; 63 g ai/ha)
40: phytotoxicity rating SETVI ([8]; 250 g ai/ha) | phytotoxicity rating RICE (crop damage) ([20]; 250 g ai/ha) | Pre-emerge Herbicidal Activity RICE ([22]; 250 g ai/ha)
50: Pre-emerge Herbicidal Activity ABUTH ([11]; 63 g ai/ha) | Pre-emerge Herbicidal Activity CASOB ([15]; 250 g ai/ha) | Pre-emerge Herbicidal Activity CORN ([21]; 250 g ai/ha)
25: phytotoxicity rating CORN (crop damage) ([19]; 250 g ai/ha)
10: phytotoxicity rating DIGSA ([3]; 63 g ai/ha) | phytotoxicity rating ECHCG ([9]; 63 g ai/ha) | Pre-emerge Herbicidal Activity CORN ([21]; 63 g ai/ha)
